Reference: patent US10947270B2, “Targeted prodrug cytosine deaminase fusion carrier and application thereof” (National Yang-Ming University, priority 2015, dated 2021)

Columns and labels:
[1] = test system: HUVEC, U87MG and MCF-7 cells; experiment: MTT cytotoxicity assay of yCD series, statements for all three cells; assay type: cell-based, human; settings: 5-FC alone
Method: (§1) The cell viability was determined by MTT assay. The seeded HUVEC cells shown in FIG. 7A, the seeded U87MG cells shown in FIG. 7B and the 96 wells of seeded MCF-7 cells shown in FIG. 7C are respectively added with 500 nM RGD4C-yCD, yCD, RGD4C-yCD/UPRT and yCD/UPRT recombinant protein, after removing the recombinant protein not bound with the cells and washing the cells, add 5-FC with different concentrations and observe the cell killing effect. Cells of the control groups were only incubated with different concentrations of 5-FU or 5-FC without protein treatment.
(§2) In this experiment, the MTT assay is applied to measure cytotoxicity induced by RGD4C-yCD/5-FC and RGD4C-yCD/UPRT/5-FC of the targeted prodrug enzyme fusion protein. In 96-well plate of seeded cells is respectively added with recombinant proteins such as 500 nM RGD4C-yCD, yCD, RGD4C-yCD/UPRT and yCD/UPRT, and co-cultured at 37° C. for 2 hours. The recombinant proteins not bound with cells are discarded. The cells were washed, and then were treated with different concentrations of 5-FC for observing the effect of cytotoxicity. On the other hand, the cells only treated with different concentrations of 5-FC and 5-FU separately as the control group.

[2] = test system: U87MG, HUVEC and MCF-7 cells; experiment: MTT cytotoxic test of EcCD series, statements for several cells; assay type: cell-based, human; settings: 5-FC alone
Method: (§3) Relative cell viability was measured by MTT assay. The 50 nM EcCD series fusion protein is applied to U87MG, HUVEC and MCF-7 cells at 37° C. for 2 hours, after washing the unbound protein with PBS.

[3] = test system: HUVEC cells; experiment: MTT cytotoxicity assay of yCD series protein combined with 5-FC; assay type: cell-based; settings: Homo sapiens, 5-FU alone
Method: as §1, §2

[4] = test system: U87MG cells; experiment: as above; assay type: cell-based; settings: Homo sapiens, U-87 MG, 5-FU alone
Method: as §1, §2

[5] = test system: MCF-7 cells; experiment: as above; assay type: cell-based, human
Method: as §1, §2

[6] = test system: HUVEC and U87MG cells; experiment: TUNEL apoptosis assay of yCD series fusion protein combined with 5-FC; assay type: cell-based, human; settings: 500 nM protein, 100 μM 5-FC or 5-FU, 72 hours
Method: FIGS. 9A-9D show the cell apoptosis assay of the yCD series fusion protein combined with 5-FC in HUVEC and U87MG cells. […] And then TUNEL assay kit was used to detect the cell apoptosis (red signal: DNA fragment detected by TUNEL assay kit; blue signal: Hoechst 33342 cell nuclear stain). Cells of the control groups were only incubated with different concentrations of 5-FU or 5-FC without protein treatment. […] (*P value<0.05; Calibration scale: 20 μm)
Previous literature pointed out that 5-FU can promote apoptosis by inhibiting the synthesis of cellular DNA. This experiment is performed on apoptosis analysis to evaluate whether the enzyme precursor treatment system of RGD4C-yCD/5-FC and RGD4C-yCD/UPRT/5-FC can kill the cells by apoptotic mechanism. HUVEC and U87MG cells are co-cultured with culture medium containing 500 nM RGD4C-yCD and RGD4C-yCD/UPRT protein for 2 hours at 37° C., remove and wash the unbound or endocytic proteins, add 100 μM 5-FC or 5-FU, after acting for 72 hours, the DNA fragment of the apoptosis is stained with fluorescence by TUNEL assay analysis set, and the apoptosis is observed by conjugated fluorescence microscope. […] Furtherly, TUNEL fluorescence signals are quantified by image analysis software MetaMorph. […]

[7] = test system: MCF-7 cells; experiment: MTT cytotoxic test of EcCD series fusion protein (50 nM) coupled with 5-FC; assay type: cell-based; settings: Homo sapiens, MCF7, 5-FU alone, 72 hours
Method: as §3

[8] = test system: U87MG cells; experiment: as above; assay type: cell-based; settings: Homo sapiens, U-87 MG, 5-FU alone, 72 hours
Method: as §3

[9] = test system: HUVEC cells; experiment: as above; assay type: cell-based, human; settings: 5-FU alone
Method: as §3

[10] = assay type: physicochemical
Method: The radiochemical purity of ^111In-DTPA-yCD and ^111In-DTPA-RGD4C-yCD are greater than 95% after marking and purification. Both are stored in HEPES buffer liquid (4° C.) for 48 hours, and the radiochemical purity is still higher than 85% (see FIG. 26). Both are placed in fetal bovine serum (37° C.) to simulate their stability in vivo. After 48 hours, the radiochemical purity of both is about 80%. It is shown that radioactive metal indium-111 is stably chelated on DTPA.

[11] = test system: HUVEC cells; experiment: Competitive cell uptake with cRGDfk; assay type: cell-based, human; settings: cRGDfk 1000-fold molar excess, 4 hours
Method: (§4) The uptake of ^111In-DTPA-yCD is low in the all three cell lines. […] The uptake amount of ^111In-DTPA-RGD4C-yCD by each cell strain is used as a control group, and analyzed by two sample t-test statistical methods, *P-value<0.05, **P-value<0.01, ***P-value<0.001, ****P-value<0.0001.
(§5) ^111In-DTPA-yCD and ^111In-DTPA-RGD4C-yCD (20 μCi/50 pmol/mL) are separately added to the 24-well plate of the seeded cells (2.5×10^5 cells/well) and cultured for 4 hours, and then the radioactivity of the cells and culture medium are separately measured, calculate the uptake amount of the drug by the cells (shown as % AD/10^6 cells).

[12] = test system: MCF-7 cells; experiment: Competitive cell uptake with cRGDfk; assay type: cell-based, human; settings: cRGDfk 1000-fold molar excess, 4 hours
Method: as §4, §5

[13] = test system: U87MG cells; experiment: Competitive cell uptake with cRGDfk; assay type: cell-based, human; settings: cRGDfk 1000-fold molar excess, 4 hours
Method: as §4, §5

[14] = test system: ES-2-luc cells; experiment: Competitive cell uptake with cRGDfk; assay type: cell-based; settings: cRGDfk 1000-fold molar excess, 4 hours
[15] = set-up: species or system nude mice; settings: mouse, in vivo
Method: The arrow is marked as a tumor.
In in-vitro cell experiment, the binding ability of ^111In-DTPA-RGD4C-yCD and the integrin αvβ3 receptor on the cell membrane has been verified. In order to know whether the drug can show its target effect in vivo, integrin αvβ3 is seeded subcutaneously in the right side of nude mice. After the high-expression U87MG tumor cells are grown to 100 mm^3, 60-70 μCi (3-3.5 μg) of ^111In-DTPA-yCD and ^111In-DTPA-RGD4C-yCD are injected directly into the tumor, the images are collected by microSPECT/CT after 1, 4, 24, 48 hours. It can be seen from the image (see FIG. 31) that the drug retention in the ^111In-DTPA-RGD4C-yCD group (orange arrow) is better than that in the ^111In-DTPA-yCD, and the target ligand RGD4C is missing. ^111In-DTPA-yCD enters the systemic blood circulation system within 1 hour and is metabolized by normal organs. From FIG. 31, it can be seen that the kidney is the main metabolic organ of these two drugs. […] After 24-48 hours, the amount of accumulation in the tumor is running out. On the contrary, ^111In-DTPA-RGD4C-yCD is bound with integrin αvβ3 on tumor cells, then the ratio of drug entering the systemic blood circulation is reduced, and the metabolic rate is slow.

[16] = set-up: species or system nude mice; settings: mouse, in vivo; remark: listed apart in the source
Method: ES-2-luc tumor nude mice is intraperitoneally injected with 50 μCi (2.5 μg) ^111In-DTPA-yCD and ^111In-DTPA-RGD4C-yCD for 1, 4 and 24 hours, then organs are collected and their radioactivity is measured to obtain biodistribution, as shown in Table 19 and Table 20. […] In addition to the part accumulated in the tumor, another part of the drug is absorbed back into the blood circulation system by the peritoneal blood vessels. […] The pancreatic radioactivity of the two drugs is observed after 1 hour of injection. The pancreatic radioactivity of ^111In-DTPA-RGD4C-yCD (8.06±0.88% ID/g) is higher than that of ^111In-DTPA-yCD (3.91±0.36% ID/g), it is suspected that tumor cells invade the pancreas.

With `Nc1nc(=O)[nH]cc1F` [5-FC, 5-fluorocytosine] the “cytotoxic ability” value [1] was “not significant cytotoxic ability” and the survival rate [2] was roughly 100%.

For `O=c1[nH]cc(F)c(=O)[nH]1` [5-FU, 5-fluorouracil], the IC50 [3] was 1.6 ± 0.2 µM, the IC50 [4] was 1.6 ± 0.3 µM and the IC50 ([5]; 5-FU alone) was 2.2 ± 0.3 µM. The IC50 ([5]; Homo sapiens, MCF7, 5-FU alone) was 2.1 ± 0.3 µM, the “apoptosis (TUNEL, words)” value [6] was “a large amount of apoptosis” and the IC50 [7] was 25.6 ± 0.3 µM. For the same molecule, the IC50 [8] was 6.5 ± 0.2 µM, the IC50 ([9]; 72 hours) was 6.2 ± 1.3 µM and the IC50 ([9]; Homo sapiens, 72 h) was 6.5 ± 1.3 µM.

B1: ^111In-DTPA-RGD4C-yCD: indium-111 labeled DTPA-RGD4C-yCD protein (conjugate)
chain: MACDCRGDCFCVTGGMASKWDQKGMDIAYEEAALGYKEGGVPIGGCLINNKDGSVLGRGHNMRFQKGSATLHGEISTLENCGRLEGKVYKDTTLYTTLSPCDMCTGAIIMYGIPRCVVGENVNFKSKGEKYLQTRGHEVVVVDDERCKKIMKQFIDERPQDWFEDIGELEHHHHHH
In the case of B1, the “radiochemical purity after incubation” value [10] is reported as “about 80%”, the “decrease of cell uptake by cRGDfk” value [11] is reported as “about 65%” and the “decrease of cell uptake by cRGDfk” value [12] is reported as roughly 45%. For the same molecule, the “decrease of cell uptake by cRGDfk” value [13] was roughly 55%, the “decrease of cell uptake by cRGDfk” value [14] was “about 70%” and the “accumulation in the tumor” value [15] was “considerable drug accumulation in the tumor”. For the same molecule, the “radioactivity in the peritoneal cavity reduced to (fraction of 1 hour value)” value [16] was “¼” and the “radioactivity in tumor higher than that of ^111In-DTPA-yCD” value [16] was “approximately 3 times”.
